From patent US9504730B2, “Method of achieving a thymosin beta 4 concentration in a human patient” (REGENERX BIOPHARMACEUTICALS, INC., priority 2010, dated 2016)

Assays:
[1] = Thymosin dosage regimens calculated with Formula II; set-up: species or system human
Text: A physician or health care provider may first determine a desired concentration of thymosin beta 4 (or a desired increase in concentration of thymosin beta 4 from an existing level) in a body portion of a live human patient in need of treatment. The physician or health care provider may then calculate the dosage necessary to achieve the desired concentration using the formula: C=(A)D·t^−B (Formula I), or D=C/(A)(t^−B) (Formula IA), wherein C is the predetermined thymosin beta 4 concentration to be provided in ng/mL, D is the dosage of thymosin beta 4 administered in mg, t is the time elapsed after administration of an initial dosage of thymosin beta 4 in hours (t is treated as a constant in this equation), A is about 30 to about 38, and B is about 0.5 to about 1. According to one embodiment, the formula is C=(35.6)D·t^−0.754 (Formula II). Time, t, may be 1, and D may equal C/35.6.
A patient in need of thymosin beta 4 treatment with a concentration of 10,000 ng/mL exogenous thymosin beta 4 is administered thymosin beta 4 according to a dosage schedule wherein D and t are calculated using C=(35.6)D*t[…].
A patient in need of thymosin beta 4 treatment with a concentration of 10,000 ng/mL exogenous thymosin beta 4 with a 1-hour dosing frequency is administered D=C/(A)t^−B=10,000 ng/mL/(35.6)(1^−0.75 h)=281 mg thymosin beta 4. […]

[2] = Analysis of TB4 concentration data from human patients administered different dosages of thymosin beta 4; format: in vivo; set-up: key to whether first dose brings TB4 concentration that high: ~: indicates first dose does not bring TB4 concentration that high; *: indicates the most efficient treatment (as determined by total required)
Text: The above formulas were developed by analysis of data from human patients who had been administered different dosages of thymosin beta 4. The frequency of dosing needed between dosages to achieve the desired concentration over time, multiplied by the dosage, gave the total drug administered in a 24-hour period. The dosage that maintained the required concentration with the lowest total drug administered was termed the most efficient. See Exampe I, below.
Based on the data collected, concentrations of TB4 in the body portion follow (especially soon after administration, with a decreasing correlation over time) a power function. An estimation of the concentration of thymosin beta 4 at 1 hour was determined using this model with an average within 10% of the experimental mean for the concentrations tested. The concentrations in the tested patients at 1 hour give an approximate range that can be efficiently maintained because the concentrations at about 1 hour are approximately 15% of the initial concentration (mean 14.7%, median 13.3%). The concentration found in human patients at 5 minutes after initial administration intravenously was defined as the initial concentration, and as Cmax, i.e. the maximum concentration achieved after administration of a dose. For the calculations made in the studies, the range of concentration which is the effective and desired dose was assumed to be 5-25% of this initial concentration (Cmax). In general, intervals between intravenous treatment times of about an hour also are the most reliably efficient in achieving and maintaining a particular concentration. Therefore, in certain embodiments, when calculating dosage using Formula I or Formula II, t may equal about 1. The concentration which is achieved with a particular dosage of thymosin beta 4 at 5 minutes (Cmax) can be found using Formula I by calculating C using the particular dosage (D) and 0.083 hours (5 minutes) as t.
Using Formula II, concentration at 1 hour is (35.6)D. In certain embodiments, the formula gives the concentration with an average error of about 10%, calculated against the experimental mean from in vivo patient data. Formulas I and II where t=1, therefore, provide a reasonable estimation of a concentration that is an acceptable and effective concentration to provide therapeutic treatment.
Treatment regimens to maintain a given dose (data summary): […]

[3] = Concentration > 1000 ng/mL in blood, infusion dosage 42 mg per dose
[4] = Concentration > 1000 ng/mL in blood, infusion dosage 140 mg per dose
[5] = Concentration > 1000 ng/mL in blood, infusion dosage 420 mg per dose
[6] = Concentration > 1000 ng/mL in blood, infusion dosage 1260 mg per dose
[7] = Concentration > 5000 ng/mL in blood, infusion dosage 42 mg per dose
[8] = Concentration > 5000 ng/mL in blood, infusion dosage 140 mg per dose
[9] = Concentration > 5000 ng/mL in blood, infusion dosage 420 mg per dose
[10] = Concentration > 5000 ng/mL in blood, infusion dosage 1260 mg per dose
[11] = Concentration > 10000 ng/mL in blood, infusion dosage 42 mg per dose
[12] = Concentration > 10000 ng/mL in blood, infusion dosage 140 mg per dose
[13] = Concentration > 10000 ng/mL in blood, infusion dosage 420 mg per dose
[14] = Concentration > 10000 ng/mL in blood, infusion dosage 1260 mg per dose
[15] = Concentration > 20000 ng/mL in blood, infusion dosage 140 mg per dose
[16] = Concentration > 20000 ng/mL in blood, infusion dosage 420 mg per dose
[17] = Concentration > 20000 ng/mL in blood, infusion dosage 1260 mg per dose
[18] = Concentration > 40000 ng/mL in blood, infusion dosage 420 mg per dose
[19] = Concentration > 40000 ng/mL in blood, infusion dosage 1260 mg per dose
[20] = human patients, intravenous, initial concentration = 5 minutes after administration (Cmax)

Structure (SMILES): CC[C@H](C)[C@H](NC(=O)[C@H](CCC(=O)O)NC(=O)[C@H](C)NC(=O)[C@H](CCSC)NC(=O)[C@H](CC(=O)O)NC(=O)[C@@H]1CCCN1C(=O)[C@H](CCCCN)NC(=O)[C@H](CC(=O)O)NC(=O)[C@H](CO)NC(C)=O)C(=O)N[C@@H](CCC(=O)O)C(=O)N[C@@H](CCCCN)C(=O)N[C@@H](Cc1ccccc1)C(=O)N[C@@H](CC(=O)O)C(=O)N[C@@H](CCCCN)C(=O)N[C@@H](CO)C(=O)N[C@@H](CCCCN)C(=O)N[C@@H](CC(C)C)C(=O)N[C@@H](CCCCN)C(=O)N[C@@H](CCCCN)C(=O)N[C@H](C(=O)N[C@@H](CCC(=O)O)C(=O)N[C@H](C(=O)N[C@@H](CCC(N)=O)C(=O)N[C@@H](CCC(=O)O)C(=O)N[C@@H](CCCCN)C(=O)N[C@@H](CC(N)=O)C(=O)N1CCC[C@H]1C(=O)N[C@@H](CC(C)C)C(=O)N1CCC[C@H]1C(=O)N[C@@H](CO)C(=O)N[C@@H](CCCCN)C(=O)N[C@@H](CCC(=O)O)C(=O)N[C@H](C(=O)N[C@H](C(=O)N[C@@H](CCC(=O)O)C(=O)N[C@@H](CCC(N)=O)C(=O)N[C@@H](CCC(=O)O)C(=O)N[C@@H](CCCCN)C(=O)N[C@@H](CCC(N)=O)C(=O)N[C@@H](C)C(=O)NCC(=O)N[C@@H](CCC(=O)O)C(=O)N[C@@H](CO)C(=O)O)[C@@H](C)CC)[C@@H](C)O)[C@@H](C)O)[C@@H](C)O [thymosin beta 4, Thymosin beta 4]
- time t between dosage forms calculated for the desired concentration ([1]; 10,000 ng/mL exogenous thymosin beta 4, 200 mg unit dosage forms): 0.637 h
- dosage D calculated for the desired concentration ([1]; 10,000 ng/mL exogenous thymosin beta 4, 1-hour dosing frequency): 281 mg
- A of Formula II C=(A)D·t^−B (concentration at 1 hour is (35.6)D) ([2]; C in ng/mL, D in mg, t in hours, developed by analysis of human patient data): 35.6
- Frequency of administration [2, 3]: 2 h
- Total TB4 required for 24 hour treatment [2, 3]: 504 mg
- Frequency of administration [2, 4]: 3 h
- Total TB4 required for 24 hour treatment [2, 4]: 1120 mg
- Frequency of administration [2, 5]: 6 h
- Total TB4 required for 24 hour treatment [2, 5]: 1680 mg
- Frequency of administration [2, 6]: 9 h
- Total TB4 required for 24 hour treatment [2, 6]: 3360 mg
- Frequency of administration [2, 7]: 0.167 h
- Total TB4 required for 24 hour treatment [2, 7]: 6048 mg
- Frequency of administration [2, 8]: 1 h
- Total TB4 required for 24 hour treatment [2, 8]: 5040 mg
- Frequency of administration [2, 9]: 2 h
- Total TB4 required for 24 hour treatment [2, 9]: 5040 mg
- Frequency of administration [2, 10]: 4 h
- Total TB4 required for 24 hour treatment [2, 10]: 7560 mg
- Frequency of administration [2, 11]: 0.083 h
- Total TB4 required for 24 hour treatment [2, 11]: 12096 mg
- Frequency of administration [2, 12]: 0.333 h
- Total TB4 required for 24 hour treatment [2, 12]: 10080 mg
- Frequency of administration [2, 13]: 1 h
- Total TB4 required for 24 hour treatment [2, 13]: 10080 mg
- Frequency of administration [2, 14]: 3 h
- Total TB4 required for 24 hour treatment [2, 14]: 10080 mg
- whether first dose brings TB4 concentration that high ([2]; Concentration > 20000 ng/mL in blood, infusion dosage 42 mg per dose): ~42
- Frequency of administration [2, 15]: 0.167 h
- Total TB4 required for 24 hour treatment [2, 15]: 20160 mg
- Frequency of administration [2, 16]: 0.667 h
- Total TB4 required for 24 hour treatment [2, 16]: 15120 mg
- Frequency of administration [2, 17]: 2 h
- Total TB4 required for 24 hour treatment [2, 17]: 15120 mg
- whether first dose brings TB4 concentration that high ([2]; Concentration > 40000 ng/mL in blood, infusion dosage 42 mg per dose): ~42
- whether first dose brings TB4 concentration that high ([2]; Concentration > 40000 ng/mL in blood, infusion dosage 140 mg per dose): ~140
- Frequency of administration [2, 18]: 0.167 h
- Total TB4 required for 24 hour treatment [2, 18]: 60480 mg
- Frequency of administration [2, 19]: 1 h
- Total TB4 required for 24 hour treatment [2, 19]: 30240 mg
- average concentration at 1 hour after administration, % of Cmax (SD) ([2]; human patients, experimental data, Cmax = 5-minute concentration): 15.7%±1.32%
- concentration at about 1 hour as % of the initial concentration, mean [2, 20]: 14.7%
- concentration at about 1 hour as % of the initial concentration, median [2, 20]: 13.3%
- concentration at about 1 hour as % of the initial concentration ([2]; human patients, intravenous, initial concentration = 5 minutes after administration (Cmax), approximate): approximately 15%
- Cmax ([2]; human, in vivo, intravenous, 6 mg/kg to 18 mg/kg dosing (420 mg and 1260 mg unit dose, respectively), read-out: Cmax levels): 90 to 350 µg/mL
